# Experimental data from patent US10183015B2, “Heterocyclic compounds and methods of use” (Medivation Technologies LLC, priority 2015, dated 2019).
# Several values for one entry are separate records, joined by “and”; a condition that tells them apart may be missing. Identical values can stand only once.
# Key:
# Assay type in all cases: in vivo
# HMGCoA = experiment: DIN mouse model: hepatic HMGCOA gene expression; settings: liver, 20 mg/kg group
# Experimental: (§1) Gene expression analysis. Hepatic expression levels of genes involved in lipid metabolism (FAS, SREBP1, ACC1, SCD1), cholesterol metabolism (HMG-CoAR, LDLR), SREBP proteolysis (SCAP, INSIG1), ER stress (PERK), oxidative stress (NRF2), inflammation (MCP-1), and fibrosis (collagen 1α1) were quantified by RTqPCR. Expression level was normalized to 18S gene expression and relative expression to vehicle group was calculated with the […] method.
# (§2) Male C57Bl/6J mice (8 weeks old) were housed in enriched ventilated cages (31×12.5×12.7 cm) throughout the experimental phase. Animals' cages litters were changed at least once a week. Animal were housed 5 per cage on inverted 12-hour light cycle (at 09:00 am lights off), 22±2° C. and 55±10% relative humidity. The acclimation period was 20 days. During the acclimation period, all mice were fed a standard diet (RM1 (E) 801492, SDS) and tap water ad libitum. After the acclimation period, mice were fed with the DIN diet (60% fat, cholesterol enriched) and fructose-enriched tap water ad libitum until the end of the experiment.
# (§3) At 6 weeks of diet, mice were 4-hour fasted (09:00 am to 1:00 pm) and blood (150 μl/EDTA) was collected at 01:00 pm by retro-orbital bleeding under isoflurane anesthesia. Mice were then allocated in 2 homogenous groups (n=12/group) according to their plasma levels of ALT (average levels: 685U/L), AST (average levels: 627U/L) and HOMA-IR index (average value: 4.7), into 2 homogenous groups (see values at day 0 in Tables 15A and 15B ALT/AST and Tables 16A and 16B for HOMA-IR). Mice were then treated once daily by oral gavage with vehicle (Group 1) or Compound #37 at 20 mg/kg (Group 2) for 70 days.
# (§4) Hepatic expression levels of genes involved in lipid (FAS, SREBP1, ACC1, SCD1), cholesterol metabolism (HMG-CoAR, LDLR), in SREBP proteolysis (SCAP, INSIG1), in ER stress (PERK), oxidative stress (NRF2), and inflammation (MCP-1) were not changed. However, expression of collagen 1α1, involved in liver fibrosis, was reduced by 66% in mice treated with Compound #37 (p<0.05 vs. vehicle).
# ACC1 = experiment: DIN mouse model: hepatic ACC1 gene expression; set-up: key to 2^DDct: expression relative to vehicle group, normalized to 18S; settings: for 2^DDct / ACC1 / DDct / Dct: Gene Expression: ACC1, 20 mg/kg group; for 18S: Gene Expression: ACC1 table, 18S reference, 20 mg/kg group
# Experimental: as §1, §2, §3, §4
# NRF2 = experiment: DIN mouse model: hepatic NRF2 gene expression; settings: liver, 20 mg/kg group
# Experimental: as §1, §2, §3, §4
# [1] = system: 60% high fat Paigen diet induced NASH mouse model; experiment: Short-term (21 day) Paigen-diet NASH mouse model: plasma ALT, AST, triglycerides, cholesterol, free fatty acids
# Experimental: To investigate whether Compound #37 prevents the development of pathology associated with NASH and steatosis in an acute exploratory disease model, a study was conducted using a diet-induced acute liver steatosis model in mice. As described below, in this study, C57BL/6J mice were initiated on the Paigen diet and simultaneously treated with Compound #37 (5, 20, and 40 mg/kg/day) or vehicle control (20% HPβCD 10 mL/kg/day) by oral gavage for 21 days.
# After acclimation, 8-week old male C57Bl/6J mice (Charles River) weighing about 25 g were randomized in 4 groups according their body weight and treated once daily around noon by oral gavage with vehicle, or Compound #37 at various for 21 days as follows: Group 1: vehicle-20% (2-hydroxypropyl)-β-cyclodextrin (HP-β-CD) (n=10); Group 2: Compound #37, 5 mg/kg (n=10) Group 3: Compound #37, 20 mg/kg (n=10) Group 4: Compound #37, 40 mg/kg (n=10). During the treatment period, body weight and food intake (measured over 24h) were measured 3 times per week and once a week, respectively. During the acclimation, all mice were fed a standard diet (Special Diets Services RM1 (E), product no. 801492) and tap water ad libitum. After the acclimation period, mice were fed until the end of the experiment with a 60% high fat Paigen diet (60 kcal % fat, 1.25% cholesterol, and 0.5% cholate; D11061901, Research Diet) and tap water ad libitum.
# One hour after the last dosing (noon), blood was collected by retro-orbital bleeding (maximal volume on EDTA) under isoflurane anesthesia to measure plasma triglycerides, total cholesterol, non-esterified fatty acid, ALT and AST. Mice were then sacrificed by cervical dislocation, and livers were harvested and weighed. Liver samples from the same lobe were dissected, frozen, and analyzed as described below.
# Data Analysis. Values are presented as mean±standard error of the mean (sem). To assess the compound effect, treated groups were compared to vehicle with a 1-way ANOVA+Dunnett's post-test. […] For RT-qPCR and score Kruskall-Wallis test was performed with Dunns post-test. For body weight evolution the treated groups were compared to vehicle with a 2-way ANOVA with Bonferroni post-test. For each test, a p<0.05 was considered significant.
# [2] = individual animals, normalised to 18S, 20 mg/kg
# [3] = individual animals, vs vehicle mean, 20 mg/kg
# [4] = 5 mg/kg p.o. daily, 21 days of diet and treatment, group mean
# [5] = 5 mg/kg p.o. daily, 21 days of diet and treatment, individual animals
# [6] = 20 mg/kg p.o. daily, 21 days of diet and treatment, group mean
# [7] = 20 mg/kg p.o. daily, 21 days of diet and treatment, individual animals
# [8] = 40 mg/kg p.o. (stopped after 4 administrations), 9 days of diet, group mean
# [9] = 40 mg/kg p.o. (stopped after 4 administrations), 9 days of diet, individual animals
smiles,measurement,setting,value
"CC(C)Cc1cc(-c2nc(-c3ccc(NS(=O)(=O)C(F)(F)F)cc3Cl)cs2)ccn1 [Compound 37, N-(3-chloro-4-(2-(2-isobutylpyridin-4-yl)thiazol-4-yl)phenyl)-1,1,1-trifluoromethanesulfonamide]",HMGCOA Dct,HMGCoA; [2],12.8 and 12.14 and 13.78 and 12.65 and 13.57 and 12.83 and 13.03 and 12.86 and 14.49 and 14.63 and 12.37
same,HMGCOA 2^DDct,HMGCoA; [3],1.34 and 2.12 and 0.68 and 1.49 and 0.79 and 1.31 and 1.14 and 1.28 and 0.41 and 0.38 and 1.8
same,HMGCOA DDct,HMGCoA; [3],−0.42 and −1.08 and 0.56 and −0.57 and 0.35 and −0.39 and −0.19 and −0.36 and 1.27 and 1.41 and −0.85
same,HMGCoA (Ct),"HMGCoA; individual animals, 20 mg/kg",25.35 and 24.69 and 26.62 and 25.08 and 25.92 and 25.42 and 24.76 and 25.37 and 25.99 and 26.18 and 24.72
same,HMGCOA 2^DDct,"HMGCoA; mean, n 11",1.16
same,HMGCOA DDct,"HMGCoA; mean, n 11",−0.03
same,HMGCOA Dct,"HMGCoA; mean, n 11",13.2
same,HMGCoA (Ct),"HMGCoA; mean, n 11",25.5
same,2^DDct,ACC1; individual animal,1.62 and 1.20 and 0.21 and 1.19 and 0.20 and 1.29 and 0.79 and 0.67 and 0.34 and 0.23 and 1.77
same,ACC1,ACC1; individual animal,27.74 and 28.17 and 31 and 28.06 and 30.55 and 28.11 and 27.95 and 28.97 and 28.95 and 29.55 and 27.41
same,DDct,ACC1; individual animal,−0.69 and −0.26 and 2.28 and −0.25 and 2.32 and −0.36 and 0.34 and 0.58 and 1.57 and 2.12 and −0.82
same,Dct,ACC1; individual animal,15.19 and 15.62 and 18.16 and 15.63 and 18.2 and 15.52 and 16.22 and 16.46 and 17.45 and 18 and 15.06
same,2^DDct,"ACC1; mean, n 11",0.86
same,ACC1,"ACC1; mean, n 11",28.8
same,DDct,"ACC1; mean, n 11",0.62
same,Dct,"ACC1; mean, n 11",16.5
same,18S,"ACC1; individual animal, 20 mg/kg",12.55 (2×) and 12.84 and 12.43 and 12.35 (2×) and 12.59 and 11.73 and 12.51 and 11.5 and 11.55
same,18S,"ACC1; mean, n 11",12.3
same,NRF2 Dct,NRF2; [2],10.62 and 10.7 and 12.57 and 11.27 and 11.31 and 10.88 and 11.1 and 10.74 and 12.23 and 11.89 and 9.9
same,NRF2 2^DDct,NRF2; [3],1.34 and 1.27 and 0.35 and 0.85 and 0.83 and 1.12 and 0.96 and 1.23 and 0.44 and 0.56 and 2.21
same,NRF2 DDct,NRF2; [3],−0.42 and −0.34 and 1.53 and 0.23 and 0.27 and −0.16 and 0.06 and −0.3 and 1.19 and 0.85 and −1.14
same,NRF2 (Ct),"NRF2; individual animals, 20 mg/kg",23.17 and 23.25 (2×) and 25.41 and 23.7 and 23.66 and 23.47 and 22.83 and 23.73 and 23.44 and 22.25
same,NRF2 2^DDct,"NRF2; mean, n 11",1.01
same,NRF2 (Ct),"NRF2; mean, n 11",23.5
same,NRF2 DDct,"NRF2; mean, n 11",0.16
same,NRF2 Dct,"NRF2; mean, n 11",11.2
same,ALT (U/L),[1]; [4],419.3 U/L
same,AST (U/L),[1]; [4],449.4 U/L
same,AST/ALT ratio,[1]; [4],1.2
same,ALT (U/L),[1]; [5],382 U/L and 620 U/L and 346 U/L and 825 U/L and 267 U/L and 246 U/L and 255 U/L and 447 U/L and 435 U/L and 370 U/L
same,AST (U/L),[1]; [5],350 U/L and 416 U/L and 710 U/L and 405 U/L and 286 U/L and 392 U/L and 481 U/L and 528 U/L and 477 U/L
same,AST/ALT ratio,[1]; [5],0.92 and 1.20 and 0.86 and 1.52 and 1.16 and 1.54 and 1.08 and 1.21 and 1.29
same,ALT (U/L),[1]; [6],403.5 U/L
same,AST (U/L),[1]; [6],431.2 U/L
same,AST/ALT ratio,[1]; [6],1.1
same,ALT (U/L),[1]; [7],266 U/L and 587 U/L and 432 U/L and 413 U/L and 385 U/L and 338 U/L
same,AST (U/L),[1]; [7],362 U/L and 467 U/L and 344 U/L and 615 U/L and 424 U/L and 375 U/L
same,AST/ALT ratio,[1]; [7],1.36 and 0.80 (2×) and 1.49 and 1.10 and 1.11
same,ALT (U/L),[1]; [8],7043.8 U/L
same,AST (U/L),[1]; [8],2685.0 U/L
same,AST/ALT ratio,[1]; [8],0.8
same,ALT (U/L),[1]; [9],1095 U/L and 1160 U/L and 12560 U/L and 13360 U/L
same,AST (U/L),[1]; [9],1165 U/L and 1555 U/L and 3900 U/L and 4120 U/L
same,AST/ALT ratio,[1]; [9],1.1 and 1.3 and 0.3 (2×)
same,mean AST and ALT,"[1]; 40 mg/kg, 4 surviving animals, sacrifice on day 9",> 2500 U/L
same,ALT and AST levels,"[1]; 40 mg/kg, day 9",very high
same,ALT (U/L) Mean,"[1]; Table B7, 5 mg/kg",419.30 U/L
same,AST (U/L) Mean,"[1]; Table B7, 5 mg/kg",449.44 U/L
same,ALT (U/L) Mean,"[1]; Table B7, 20 mg/kg",403.50 U/L
same,AST (U/L) Mean,"[1]; Table B7, 20 mg/kg",431.17 U/L
